For one molecule, IC50 results are on record in patent US7799804B2, “Therapeutic agents” (Astrazeneca AB, priority 2004, dated 2010).

The assay addresses T1, CB1 receptor (Homo sapiens, UniProt P21554).
T1 construct: expressed in transfected cells
In words: [35S]-GTPγS binding assay on membranes from cells stably transfected with the CB1 gene, inhibition of agonist CP55940 (EC80). The conditions noted are these: half maximal inhibition of GTPγS binding in presence of EC80 concentration of CP55940; 30° C., 45 min. It is filed as biochemical. On the technique in general: GTPγS resists hydrolysis and so accumulates on activated G proteins.

T1 sequence (P21554 whole entry): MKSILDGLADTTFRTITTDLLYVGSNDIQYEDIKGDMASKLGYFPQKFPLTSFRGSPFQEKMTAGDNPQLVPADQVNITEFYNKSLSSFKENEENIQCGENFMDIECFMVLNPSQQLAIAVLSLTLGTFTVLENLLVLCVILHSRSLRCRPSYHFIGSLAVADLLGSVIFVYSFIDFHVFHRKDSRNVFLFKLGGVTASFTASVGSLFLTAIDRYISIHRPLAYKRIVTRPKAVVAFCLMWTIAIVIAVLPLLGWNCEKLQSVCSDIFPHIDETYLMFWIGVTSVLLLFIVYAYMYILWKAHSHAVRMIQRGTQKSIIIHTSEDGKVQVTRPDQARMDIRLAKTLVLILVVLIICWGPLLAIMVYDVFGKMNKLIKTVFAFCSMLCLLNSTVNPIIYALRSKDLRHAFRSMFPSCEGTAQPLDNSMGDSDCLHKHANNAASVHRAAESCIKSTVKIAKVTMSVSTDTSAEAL
Method: 10 μg of membranes prepared from cells stably transfected with the CB1 gene were suspended in 200 μl of 100 mM NaCl, 5 mM MgCl2, 1 mM EDTA, 50 mM HEPES (pH 7.4), 1 mM DTT, 0.1% BSA and 100 μM GDP.
The reaction was allowed to proceed at 30° C. for 45 min. Samples were then transferred on to GF/B filters using a cell harvester and washed with wash buffer (50 mM Tris (pH 7.4), 5 mM MgCl2, 50 mM NaCl). Filters were then covered with scintillant and counted for the amount of [^35S]-GTPγS retained by the filter.
Activity is measured in the absence of all ligands (minimum activity) or in the presence of an EC80 concentration of CP55940 (maximum activity). These activities are set as 0% and 100% activity respectively. At various concentrations of novel ligand, activity is calculated as a percentage of the maximum activity and plotted. The data are fitted using the equation y=A+((B−A)/1+((C/x) UD)) and the IC50 value determined as the concentration required to give half maximal inhibition of GTPγS binding under the conditions used.

For `CCS(=O)(=O)Oc1ccc(-n2c(-c3ccc(Cl)cc3Cl)nc(C(=O)NN3CCCCC3)c2C)cc1` [Example 2, Ethanesulfonic acid 4-[2-(2,4-dichlorophenyl)-5-methyl-4-(piperidin-1-ylcarbamoyl)-imidazol-1-yl]-phenyl ester], the IC50 stood at 28 nM.

As a reminder, the IC50 is the concentration that inhibits the measured activity by half.
